The values that follow come from patent US9618513B2, “Compositions and methods for detecting and treating colorectal cancer” (The Regents of the University of Michigan, priority 2014, dated 2017).

Assay [1] deals with primary colon cancer cells. In words: Colon cancer sphere assay, primary colon cancer cells. It counts as cell-based, human. The settings on record: in the presence of IL-22, inhibitor 10 uM. As for the experimental part: (A, B) IL-22 is expressed by immune cells in colon cancer tissues. Different cell populations were sorted from colon cancer tissues and IL-22 expression was measured by real time PCR. (5-10 donors, P<0.05). (C) IL-22 is spontaneously released by different immune cell populations in colon cancer tissues. Different CD45^+ immune subsets (10^6/ml) were sorted from colon cancer and blood, and cultured for 12 hours. IL-22 was detected via ELISA. (n=5, *P<0.05). (D, E) IL-22 is expressed by activated CD4^+ T cells in colon cancer tissues. CD45^+ subsets (10^6/ml) were sorted from colon cancer and blood, and were activated with anti-CD3 and anti-CD28 for 2 days. IL-22 was detected with ELISA (D) or intracellular staining (E). (n=5, *P<0.05). […] IL-22 mRNA was detected by real time PCR (F) and protein by ELISA (G). […] IL-22 expression was quantified with real-time PCR in the migrated and non-migrated cells. Results are expressed as the mean relative expression (H). The phenotype of migrated cells, non-migrated cells and control (before migration) was analyzed by FACS (I). […] The mRNA of stem cell core genes was detected by real-time PCR after 6 hours (K) and ALDH activity was detected by FACS after 48 hours (L). […]
(A) IL-22 induces H3K79me2 in colon cancer cells. […] Total histone modifications were analyzed by western blot. […] Sphere numbers were recorded. […] DOT1L complex gene expression was quantified by real-time PCR. […]

The test system of assay [2] is NANOG, SOX2, POU5F1 (OCT3/4). In words: Stem cell core gene expression (real-time PCR, western blotting). It counts as cell-based, human. Conditions: DLD-1, IL-22 20 ng/ml. From the text:
(A), IL-22 is expressed in colon cancer tissues. IL-22 mRNA was detected by real-time PCR in colon cancer tissues and peripheral blood. *P<0.05 compared to blood, 20 colon cancer patients. (B-D), Endogenous IL-22 promotes colon carcinogenesis. Single cells (10^7) isolated from colon cancer tissue were mixed with anti-IL-22 antibody or control mAb, and then subcutaneously injected to NSG mice. Tumor growth (B), incidence (C), and animal survival (D) are shown. (P<0.05 for all, n=5 per group). (E-G) Recombinant IL-22 promotes colon carcinogenesis. DLD-1 colon cancer cells (10^5) were pre-incubated with IL-22 (20 ng/ml) for 1 hour, and then subcutaneously injected to NSG mice. […] ALDH activity was determined by FACS based on aldefluor fluorescence. […] Results are expressed as fold changes of ALDH expression. […] The mRNA of stem cell core gene was detected by real-time PCR (K) and proteins were detected by western blotting (L, M). […]
(A, B) IL-22 is expressed by immune cells in colon cancer tissues. Different cell populations were sorted from colon cancer tissues and IL-22 expression was measured by real time PCR. […] IL-22 was detected via ELISA. […] IL-22 was detected with ELISA (D) or intracellular staining (E). […] IL-22 mRNA was detected by real time PCR (F) and protein by ELISA (G). […] IL-22 expression was quantified with real-time PCR in the migrated and non-migrated cells. […]
On the technique in general: Real-time PCR tracks product formation cycle by cycle.

For `CC(C)N(CCCNC(=O)Nc1ccc(C(C)(C)C)cc1)C[C@H]1O[C@@H](n2ccc3c(N)ncnc32)[C@H](O)[C@@H]1O` [EPZ004777], in assay [1], the “sphere formation induced by IL-22” value was “suppressed”.

Consider “IL-22: recombinant IL-22 (R&D systems), cytokine interleukin-22”, for which, in assay [2] (real-time PCR), the “mRNA levels of stem cell core genes NANOG, SOX2, POU5F1 (OCT3/4)” value was “enhanced”. Moreover, in assay [2] (western blotting), the “protein levels of stem cell core genes NANOG, SOX2, POU5F1 (OCT3/4)” value is “enhanced”.
